Source: patent publication US9320724B2, “Method of improving cognition and increasing dendritic complexity in humans with down syndrome and compositions therefor” (priority 2013, dated 2016)

Experiments:
Ts65Dn and 2N mice [1] = test: Cardiovascular and respiratory system monitoring (MouseOx vital signs monitor); details: nadolol 5 mg/kg IP, 1 h later formoterol 2 mg/kg IP or saline, tested 4 h later
Procedure: (§1) Pharmacological Treatments. […] For details on methods of drug injections see FIG. 16.
Cardiovascular and respiratory system monitoring. Peripheral effects of fomoterol were assessed using MOUSEOX® Small Animal Vital Signs Monitor (Starr). The monitor was attached to a collar clip with an LED sensor to enable recordings in free-moving mice. To minimize stress before recording, the collar clip was attached to each animal. After five minutes, heart rate, respiratory rate, and oxygen saturation were recorded using MOUSEOX® 6.3.13 for 10 minutes.
(§2) FIG. 16. Strategy used for performing IP injections of βAR agonist and antagonist and behavioral testing. […] Four hours later, the mice were tested for cardiovascular and respiratory system effects, open field activity, or fear conditioning. The process started with open field-testing on day 1 followed by fear conditioning on days 4 (training) and 5 (testing).

[2] = oral administration in rodents; cited from earlier work
Ts65Dn and 2N mice [3] = test: Fear conditioning (contextual learning); format: in vivo, mouse; details: context test one day after training, nadolol 5 mg/kg IP then formoterol 2 mg/kg IP or saline
Procedure: as §1
b) Fear Conditioning. […] The fear conditioning tests were done using four FreezeScan chambers (Clever Sys) on days 4 and 5 after the start of the open field-testing. […] Four hours later, the mice were placed in the fear-conditioning chamber and their baseline activity was recorded for three minutes. At the end of this period, each mouse was exposed to five shocks (2 seconds each, 0.5 mA) with inter-trial intervals of 80 seconds. Twenty-four hours later, the mice were injected again, similar to the Training Day, and returned to the same fear-conditioning chamber for five minutes and their activity was recorded. Freezing was defined as a lack of movement for 3 frames (29 frames/s).
as §2

[4] = in vivo; cited from earlier work
BrdU-positive profiles = test: BrdU cell count in the DG (cell proliferation); format: in vivo, mouse; details: 15 days of treatment, then BrdU 50 mg/kg IP daily for 5 days
Procedure: To identify proliferating cells, we used 5-bromo-2′-deoxyuridine (BrdU, Sigma). It was dissolved in PBS, filtered, and kept at 4° C. till use. After 15 days of treatment, each mouse was injected IP daily (50 mg/kg) with BrdU solution for 5 days. Thereafter, on day 21, all mice were anesthetized and transcardially perfused with ice-cold saline. The entire brain was immediately removed and the two hemispheres were separated. The left hemisphere was fixed overnight, cut, and stored. […] This was followed by incubation of sections in ABC.
Stereo-Investigator (MBF) was used to quantify the total number of BrdU-positive cells in the entire septo-temporal extent of DG. Following the outlining of the DG area at 4×, each positive profile was identified using a 100× oil objective. Unbiased stereological methods were used to determine the total number of BrdU-immunoreactive-profiles throughout the hippocampus. A Nanozoomer system (Hamamatsu 2.0 RS) was used to capture images of the entire slide in each case. High magnification images were captured using the Nanozoomer and stored.

Ts65Dn and 2N mice [5] = test: Open field activity; format: in vivo, mouse; details: nadolol 5 mg/kg IP then formoterol 2 mg/kg IP or saline; for total distance travelled: in 10 minutes
Procedure: as §1
a) Open Field Activity. Prior to testing, the mice were handled for five days for habituation. […] Four hours later, the mice were tested for open field activity. The open field arena (450 mm×450 mm) had visual cues on the walls. […] The arena was cleaned after each session. The velocity, total distance traveled, and the time spent in the peripheral 50% versus central 50% area of the arena (bouts) for each mouse were quantified and analyzed using TopScan Lite (Clever Sys).
as §2

Fgf2 [6] = test: Fgf2 gene expression, real-time PCR in DG micro-punches; format: in vivo; details: normalized to B-actin and Gapdh and to a 2N mouse
c-Fos = c-Fos immunostaining of the DGC layer; format: in vivo, mouse; details: daily IP nadolol alone or nadolol with formoterol until day 16
Procedure: (§3) At the end of this period, all mice were anesthetized, perfused, and the brain was extracted. The right hemisphere from each brain was fixed in 4% paraformaldehyde followed by dehydration. The methodology for staining has been published before. […] The left hemisphere was flash frozen and used for gene expression studies.
(§4) Before all staining(s), to inhibit endogenous peroxidase, 70-μm-thick floating sections were pre-incubated in 0.5% H2O2 in 50% methanol for 30 minutes at RT. This was followed by pre-incubating the sections in 0.1% triton and 10% normal serums(s) (NS, Vector Labs) for 1 hour at RT. This was followed by incubation in primary antibodies overnight at RT. […] For DCX staining the sections were kept in pre-warmed (37° C.) for 30 minutes before staining. This was followed by incubation in secondary anti-bodies that were diluted in 0.1% triton and corresponding 1% NS. The sections were then incubated in ABC Lite (1:1000, Vector) for 1 hour. Staining was terminated by incubating in DAB (0.66 mg/ml in tris-HCl) for 5-10 minutes. Finally, the sections were washed, dehydrated and mounted.
(§5) FIG. 16. Strategy used for performing IP injections of βAR agonist and antagonist and behavioral testing. […] Four hours later, the mice were tested for cardiovascular and respiratory system effects, open field activity, or fear conditioning. […]

DCX-positive neurons = test: DCX immunostaining: number and dendritic branching of newly born DGCs; format: in vivo, mouse; details: nadolol alone or nadolol with formoterol
Procedure: as §3, §4

synaptophysin = test: Synaptophysin immunostaining of the DG (synaptic density); format: in vivo, mouse; details: daily IP nadolol alone or nadolol with formoterol until day 16
Procedure: as §3, §4, §5

Fgf2 [7] = details: rats; IP injections; cited from earlier work
Ts65Dn mice [8] = details: cited from earlier work
Ts65Dn mice [9] = details: cited from earlier work; for contextual learning: earlier study

COc1ccc(CC(C)NCC(O)c2ccc(O)c(NC=O)c2)cc1 (stereo not drawn) [formoterol]
O2 saturation (Ts65Dn and 2N mice [1]; 2N mice): 93.221±0.36% | heart rate (Ts65Dn and 2N mice [1]; 2N mice): 638.440±44.77 pulse per minute | O2 saturation (Ts65Dn and 2N mice [1]; Ts65Dn mice): 92.205±1.31% | heart rate (Ts65Dn and 2N mice [1]; Ts65Dn mice): 672.620±36.58 pulse per minute | respiratory rate (Ts65Dn and 2N mice [1]; Ts65Dn mice): 189.090±8.40 per minute | time to reach the brain [2]: ≤ 30 min | duration of freezing (Ts65Dn and 2N mice [3]; Ts65Dn mice): 34.040±3.66 seconds per minute | crossing of the blood brain barrier [4]: cross the blood brain barrier (BBB) and reach the brain

CC(C)(C)NCC(O)COc1cccc2c1CC(O)C(O)C2 (stereo not drawn) [nadolol]
total number of BrdU-positive profiles in the DG (BrdU-positive profiles; 2N mice): 3,161.390±900 | total number of BrdU-positive profiles in the DG (BrdU-positive profiles; Ts65Dn mice): 2,133.290±491 | total distance travelled (Ts65Dn and 2N mice [5]; 2N mice): 18.233±1.48 meters | number of bouts, central 50% area (Ts65Dn and 2N mice [5]; 2N mice): 39.46±4.96 | number of bouts, peripheral 50% area (Ts65Dn and 2N mice [5]; 2N mice): 45.00±5.68 | mean velocity in the open field arena (Ts65Dn and 2N mice [5]; 2N mice, 4 h later): 31.465±2.74 mm/s | total distance travelled (Ts65Dn and 2N mice [5]; Ts65Dn mice): 30.424±2.70 meters | number of bouts, central 50% area (Ts65Dn and 2N mice [5]; Ts65Dn mice): 60.25±4.95 | Fgf2 gene expression in DG micro-punches (Fgf2 [6]; 2N mice): 1.000±0.41 | Fgf2 gene expression in DG micro-punches (Fgf2 [6]; Ts65Dn mice): 0.344±0.07 | duration of freezing (Ts65Dn and 2N mice [3]; 2N mice): 46.761±3.09 seconds per minute | duration of freezing (Ts65Dn and 2N mice [3]; Ts65Dn mice): 19.28±4.79 seconds per minute | density of c-Fos-positive DGCs (c-Fos; 2N mice): 179.30±22.4 cells/mm^2 | density of c-Fos-positive DGCs (c-Fos; Ts65Dn mice): 109.42±13.0 cells/mm^2 | number of DCX-positive DGCs (DCX-positive neurons; 2N mice): 5391.36±744 | order of dendritic branching of DCX-positive neurons (DCX-positive neurons; 2N mice): 2.05±0.12 | number of DCX-positive DGCs (DCX-positive neurons; Ts65Dn mice): 2837.79±500 | order of dendritic branching of DCX-positive neurons (DCX-positive neurons; Ts65Dn mice): 1.58±0.08 | percentage of area covered by synaptophysin staining in the DG (synaptophysin; 2N mice): 27.40±11.00% | percentage of area covered by synaptophysin staining in the DG (synaptophysin; Ts65Dn mice): 21.50±1.00%

CC(C)(C)NCC(O)c1cc(Cl)c(N)c(Cl)c1 (stereo not drawn) [clenbuterol]
Fgf2 mRNA levels in the hippocampus (Fgf2 [7]): significant increase

CNCCC(Oc1ccc(C(F)(F)F)cc1)c1ccccc1 (stereo not drawn) [fluoxetine]
neurogenesis (Ts65Dn mice [8]): promote neurogenesis

N[C@H](C(=O)O)[C@H](O)c1ccc(O)c(O)c1 [L-DOPS, L-threo-3,4-dihdroxyphenylserine]
contextual learning (Ts65Dn mice [9]): restored contextual learning

O=C(NCCNCC(O)COc1ccc(O)cc1)N1CCOCC1 (stereo not drawn) [xamoterol]
contextual learning (Ts65Dn mice [9]): restored contextual learning | spatial learning and hyperactivity (Ts65Dn mice [9]; later studies): did not improve spatial learning and/or reduce hyperactivity
